A word on the IC50: it is the point on the concentration scale where inhibition reaches its midpoint.

The text below walks through data of patent US10717742B2, “Spiro[3H-indole-3,2′-pyrrolidin]-2(1H)-one compounds and derivatives as MDM2-P53 inhibitors” (Boehringer Ingelheim International GmbH, priority 2015, dated 2020).

Molecules are shown by their SMILES.

This test deals with p53-MDM2 interaction (GST-MDM2 protein aa 23-117 / biotinylated p53 wt peptide) (Homo sapiens (Human), UniProt Q00987). In words: Mdm2-p53 Inhibition AlphaScreen. The class given is binding. The following applies: GST-MDM2 (aa 23-117) / biotinylated p53 wt peptide. As to the method:
Mdm2-p53 Inhibition AlphaScreen
15 μL of compound in 20% DMSO (serial pre-dilutions of compound are done in 100% DMSO) is pipetted to the wells of a white OptiPlate-96 (Perkin Elmer). A mix consisting of 20 nM GST-MDM2 protein (aa 23-117) and 20 nM biotinylated p53 wt peptide (encompassing aa 16-27 of wt human p53, amino acid sequence […]-Ttds-Lys-Biotin, molecular weight 2132.56 g/mol) is prepared in assay buffer (50 mM Tris/HCl pH 7.2; 120 mM NaCl; 0.1% bovine serum albumin (BSA); 5 mM dithiothreitol (DTT); 1 mM ethylenediaminetetraacetic acid (EDTA); 0.01% Tween 20). 30 μL of the mix is added to the compound dilutions and incubated for 15 min at rt while gently shaking the plate at 300 rounds per minute (rpm). Subsequently, 15 μL of premixed AlphaLISA Glutathione Acceptor Beads and AlphaScreen Streptavidin Donor Beads from PerkinElmer (in assay buffer at a concentration of 10 μg/mL each) are added and the samples are incubated for 30 min at rt in the dark (shaking 300 rpm). Afterwards, the signal is measured in a PerkinElmer Envision HIS Multilabel Reader using the AlphaScreen protocol from Perkin Elmer.
Each plate contains negative controls where biotinylated p53-peptide and GST-MDM2 are left out and replaced by assay buffer. Negative control values are entered as low basis value when using the software GraphPad Prism for calculations. Furthermore, a positive control (5% DMSO instead of test compound; with protein/peptide mix) is pipetted. Determination of IC50 values are carried out using GraphPad Prism 3.03 software (or updates thereof).
(In general: Alpha assays give light when donor and acceptor beads are brought close together.)

p53-MDM2 interaction (GST-MDM2 protein aa 23-117 / biotinylated p53 wt peptide), sequence (Q00987 23-117): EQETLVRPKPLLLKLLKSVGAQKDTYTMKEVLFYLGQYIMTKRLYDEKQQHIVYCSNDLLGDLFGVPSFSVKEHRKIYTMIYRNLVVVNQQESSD

Compound `COC(=O)c1ccc2c3n(nc2c1C)[C@@H]1[C@H](C3)N(CC2CC2)[C@@]2(C(=O)Nc3cc(Cl)ccc32)[C@H]1c1cccc(Cl)c1F` [Ia-20] returned a half-maximal inhibitory concentration (IC50) of 23 nM. As to `O=C(O)c1ccc2c3n(nc2c1)[C@@H]1[C@H](C3)N(CC2CC2)[C@@]2(C(=O)Nc3cc(Cl)ccc32)[C@H]1c1cccc(Cl)c1F` [Ia-25], the IC50 came out at 2 nM. Compared with the last compound, the IC50 is about 12-fold lower. In turn, `O=C(O)c1ccc2c3n(nc2c1)[C@@H]1[C@H](C3)N(CC2CCC2)[C@@]2(C(=O)Nc3cc(Cl)ccc32)[C@H]1c1cccc(Cl)c1F` [Ia-26] showed a 50% inhibitory concentration (IC50) of 4 nM. `CC(C)CN1[C@H]2Cc3c4ccc(C(=O)O)cc4nn3[C@H]2[C@H](c2cccc(Cl)c2F)[C@]12C(=O)Nc1cc(Cl)ccc12` [Ia-27] yielded a concentration for half-maximal inhibition (IC50) of 2 nM. As for `CCCN1[C@H]2Cc3c4ccc(C(=O)O)cc4nn3[C@H]2[C@H](c2cccc(Cl)c2F)[C@]12C(=O)Nc1cc(Cl)ccc12` [Ia-29], 2 nM corresponded to half-maximal inhibition (IC50). This lies in the single-digit nanomolar range.

`CCN1[C@H]2Cc3c4ccc(C(=O)O)cc4nn3[C@H]2[C@H](c2cccc(Cl)c2F)[C@]12C(=O)Nc1cc(Cl)ccc12` [Ia-30] came in with an IC50 of 2 nM. In the case of `COCCN1[C@H]2Cc3c4ccc(C(=O)O)cc4nn3[C@H]2[C@H](c2cccc(Cl)c2F)[C@]12C(=O)Nc1cc(Cl)ccc12` [Ia-31], the half-maximal inhibitory concentration (IC50) is 3 nM. Compared with the last compound, the IC50 is about 1.5-fold higher. The value for `CCOc1cccc(CN2[C@H]3Cc4c5ccc(C(=O)O)cc5nn4[C@H]3[C@H](c3cccc(Cl)c3F)[C@]23C(=O)Nc2cc(Cl)ccc23)c1` [Ia-32] was 2 nM; that for `Cc1cc2c3n(nc2cc1C(=O)O)[C@@H]1[C@H](C3)N(CC2CC2)[C@@]2(C(=O)Nc3cc(Cl)ccc32)[C@H]1c1cccc(Cl)c1F` [Ia-33] was 3 nM. `Cc1c(C(=O)O)ccc2c3n(nc12)[C@@H]1[C@H](C3)N(CC2CC2)[C@@]2(C(=O)Nc3cc(Cl)ccc32)[C@H]1c1cccc(Cl)c1F` [Ia-34] yielded an IC50 of 2 nM.

In turn, `COc1cc2c3n(nc2cc1C(=O)O)[C@@H]1[C@H](C3)N(CC2CC2)[C@@]2(C(=O)Nc3cc(Cl)ccc32)[C@H]1c1cccc(Cl)c1F` [Ia-35] yielded an IC50 of 2 nM. As to `COc1c(C(=O)O)ccc2c3n(nc12)[C@@H]1[C@H](C3)N(CC2CC2)[C@@]2(C(=O)Nc3cc(Cl)ccc32)[C@H]1c1cccc(Cl)c1F` [Ia-36], the half-inhibitory concentration (IC50) worked out at 5 nM. For the compound `O=C(O)c1ccc2nn3c(c2c1)C[C@H]1[C@@H]3[C@H](c2cccc(Cl)c2F)[C@]2(C(=O)Nc3cc(Cl)ccc32)N1CC1CC1` [Ia-38], the IC50 worked out at 2 nM. Compared with the last compound, the IC50 is about 2.5-fold lower. Take `Cc1cc2c3n(nc2cc1C(=O)O)[C@@H]1[C@H](C3)N(CC(C)C)[C@@]2(C(=O)Nc3cc(Cl)ccc32)[C@H]1c1cccc(Cl)c1F` [Ia-39]: the IC50 stood at 4 nM. The compound `CCOc1cccc(CN2[C@H]3Cc4c5cc(C)c(C(=O)O)cc5nn4[C@H]3[C@H](c3cccc(Cl)c3F)[C@]23C(=O)Nc2cc(Cl)ccc23)c1` [Ia-40] gave an IC50 of 2 nM.

Compound `O=C(O)c1ccc2c3n(nc2c1)[C@@H]1[C@H](C3)N(CC2CC2)[C@@]2(C(=O)Nc3cc(Cl)ccc32)[C@H]1c1ccnc(Cl)c1F` [Ia-41] returned an IC50 of 3 nM. To `O=C(O)c1ccc2c3n(nc2c1)[C@@H]1[C@H](C3)N(CC2CC2)[C@@]2(C(=O)Nc3nc(Cl)ccc32)[C@H]1c1cccc(Cl)c1F` [Ia-43] belongs 2 nM; to `CC(C)(O)CNC(=O)c1ccc2c3n(nc2c1)[C@@H]1[C@H](C3)N(CC2CCC2)[C@@]2(C(=O)Nc3cc(Cl)ccc32)[C@H]1c1cccc(Cl)c1F` [Ia-46], 8 nM; to `O=C(NC1CC1)c1ccc2c3n(nc2c1)[C@@H]1[C@H](C3)N(CC2CCC2)[C@@]2(C(=O)Nc3cc(Cl)ccc32)[C@H]1c1cccc(Cl)c1F` [Ia-47], 9 nM. In the case of `COCC(COC)NC(=O)c1ccc2c3n(nc2c1)[C@@H]1[C@H](C3)N(CC2CCC2)[C@@]2(C(=O)Nc3cc(Cl)ccc32)[C@H]1c1cccc(Cl)c1F` [Ia-48], the IC50 stood at 10 nM.

`COCCOCCNC(=O)c1ccc2c3n(nc2c1)[C@@H]1[C@H](C3)N(CC2CCC2)[C@@]2(C(=O)Nc3cc(Cl)ccc32)[C@H]1c1cccc(Cl)c1F` [Ia-49] displayed an IC50 of 6 nM.

With `CCN1[C@H]2Cc3c4ccc(C(=O)NCCO)cc4nn3[C@H]2[C@H](c2cccc(Cl)c2F)[C@]12C(=O)Nc1cc(Cl)ccc12` [Ia-50], half-maximal inhibition (IC50) required 4 nM. Compared with the last compound, the IC50 is about 1.5-fold lower.

`CCN1[C@H]2Cc3c4ccc(C(=O)NCCN(C)C)cc4nn3[C@H]2[C@H](c2cccc(Cl)c2F)[C@]12C(=O)Nc1cc(Cl)ccc12` [Ia-51] yielded a concentration for half-maximal inhibition (IC50) of 7 nM. The value for `CCN1[C@H]2Cc3c4ccc(C(=O)N5CCCCC5)cc4nn3[C@H]2[C@H](c2cccc(Cl)c2F)[C@]12C(=O)Nc1cc(Cl)ccc12` [Ia-52] was 69 nM. The value for `CCN1[C@H]2Cc3c4ccc(C(=O)NC5(C)COC5)cc4nn3[C@H]2[C@H](c2cccc(Cl)c2F)[C@]12C(=O)Nc1cc(Cl)ccc12` [Ia-53] was 7 nM. In turn, `CCOc1cccc(CN2[C@H]3Cc4c5cc(C)c(C(=O)N6CCOCC6)cc5nn4[C@H]3[C@H](c3cccc(Cl)c3F)[C@]23C(=O)Nc2cc(Cl)ccc23)c1` [Ia-54] gave a concentration for half-maximal inhibition (IC50) of 13 nM. Consider `CCOc1cccc(CN2[C@H]3Cc4c5cc(C)c(C(=O)NCCOC)cc5nn4[C@H]3[C@H](c3cccc(Cl)c3F)[C@]23C(=O)Nc2cc(Cl)ccc23)c1` [Ia-55], for which the IC50 was 6 nM. As for `CCOc1cccc(CN2[C@H]3Cc4c5cc(C)c(C(=O)NC)cc5nn4[C@H]3[C@H](c3cccc(Cl)c3F)[C@]23C(=O)Nc2cc(Cl)ccc23)c1` [Ia-56], 5 nM corresponded to half-maximal inhibition (IC50). The IC50 values of the last two compounds are within 1.5-fold of each other. Take `CCOc1cccc(CN2[C@H]3Cc4c5cc(C)c(C(=O)N(C)C)cc5nn4[C@H]3[C@H](c3cccc(Cl)c3F)[C@]23C(=O)Nc2cc(Cl)ccc23)c1` [Ia-57]: inhibition was half-maximal at 13 nM (IC50). Compared with the last compound, the IC50 is about 2.6-fold higher.

For the compound `CCOc1cccc(CN2[C@H]3Cn4c(nc5cc(C(=O)OC)ccc54)[C@H]3[C@H](c3cccc(Cl)c3F)[C@]23C(=O)Nc2cc(Cl)ccc23)c1` [Ib-49], the IC50 came to 5 nM.

Consider `CS(=O)(=O)c1ccc2c(c1)nc1n2CC[C@H]2[C@@H]1[C@H](c1cccc(Cl)c1F)[C@]1(C(=O)Nc3cc(Cl)ccc31)N2CC1CC1` [Ib-57], for which 12 nM corresponded to half-maximal inhibition (IC50). To `CS(=O)(=O)c1ccc2c(c1)nc1n2CC[C@H]2[C@@H]1[C@H](c1cccc(Cl)c1F)[C@]1(C(=O)Nc3cc(Cl)ccc31)N2CC1CC1` [Ib-58] belongs 7 nM; to `CC(=O)Nc1ccc2c(c1)nc1n2CC[C@H]2[C@@H]1[C@H](c1cccc(Cl)c1F)[C@]1(C(=O)Nc3cc(Cl)ccc31)N2CC1CC1` [Ib-59], 15 nM; to `COC(=O)c1ccc2c(c1)nc1n2CC[C@H]2[C@@H]1[C@H](c1cccc(Cl)c1F)[C@]1(C(=O)Nc3cc(Cl)ccc31)N2CC=C(C)C` [Ib-66], 166 nM.

The compound `O=C(O)c1ccc2c(c1)nc1n2CC[C@H]2[C@@H]1[C@H](c1cccc(Cl)c1F)[C@]1(C(=O)Nc3cc(Cl)ccc31)N2CC1CC1` [Ib-106] displayed a 50% inhibitory concentration (IC50) of 3 nM. The value for `O=C(O)c1ccc2c(c1)nc1n2CC[C@H]2[C@@H]1[C@H](c1cccc(Cl)c1F)[C@]1(C(=O)Nc3cc(Cl)ccc31)N2CC1CC1` [Ib-107] was 2 nM; that for `O=C(O)c1ccc2c(c1)nc1n2CC[C@@H]2[C@H]1[C@@H](c1cccc(Cl)c1F)[C@@]1(C(=O)Nc3cc(Cl)ccc31)N2CC1CC1` [Ib-108] was 79 nM. In the case of `CC(C)CN1[C@H]2CCn3c(nc4cc(C(=O)O)ccc43)[C@H]2[C@H](c2cccc(Cl)c2F)[C@]12C(=O)Nc1cc(Cl)ccc12` [Ib-109], it took 8 nM to reach half-maximal inhibition (IC50). Consider `CC(C)CN1[C@H]2CCn3c(nc4cc(C(=O)O)ccc43)[C@H]2[C@H](c2cccc(Cl)c2F)[C@]12C(=O)Nc1cc(Cl)ccc12` [Ib-110], for which 3 nM corresponded to half-maximal inhibition (IC50). This IC50 lies about 2.7-fold lower than the previous one. With `CCN1[C@H]2CCn3c(nc4cc(C(=O)O)ccc43)[C@H]2[C@H](c2cccc(Cl)c2F)[C@]12C(=O)Nc1cc(Cl)ccc12` [Ib-111], the IC50 worked out at 7 nM.

For the compound `CCCN1[C@H]2CCn3c(nc4cc(C(=O)O)ccc43)[C@H]2[C@H](c2cccc(Cl)c2F)[C@]12C(=O)Nc1cc(Cl)ccc12` [Ib-113], the IC50 amounted to 4 nM. This IC50 lies about 1.8-fold lower than the previous one.

Take `CCCCN1[C@H]2CCn3c(nc4cc(C(=O)O)ccc43)[C@H]2[C@H](c2cccc(Cl)c2F)[C@]12C(=O)Nc1cc(Cl)ccc12` [Ib-115]: the IC50 turned out to be 7 nM. `CCCCCN1[C@H]2CCn3c(nc4cc(C(=O)O)ccc43)[C@H]2[C@H](c2cccc(Cl)c2F)[C@]12C(=O)Nc1cc(Cl)ccc12` [Ib-117]: the half-inhibitory concentration (IC50) stood at 8 nM. The IC50 values of the last two compounds are within 1.5-fold of each other. Regarding `CC(C)CCN1[C@H]2CCn3c(nc4cc(C(=O)O)ccc43)[C@H]2[C@H](c2cccc(Cl)c2F)[C@]12C(=O)Nc1cc(Cl)ccc12` [Ib-119], the IC50 was 12 nM.

The compound `CC(C)=CCN1[C@H]2CCn3c(nc4cc(C(=O)O)ccc43)[C@H]2[C@H](c2cccc(Cl)c2F)[C@]12C(=O)Nc1cc(Cl)ccc12` [Ib-121] yielded a concentration for half-maximal inhibition (IC50) of 11 nM. To `O=C(O)c1ccc2c(c1)nc1n2CC[C@H]2[C@@H]1[C@H](c1cccc(Cl)c1F)[C@]1(C(=O)Nc3cc(Cl)ccc31)N2CC1CCC1` [Ib-123] belongs 4 nM.

With `O=C(O)c1ccc2c(c1)nc1n2CC[C@H]2[C@@H]1[C@H](c1cccc(Cl)c1F)[C@]1(C(=O)Nc3cc(Cl)ccc31)N2CC1CC(F)(F)C1` [Ib-125], the IC50 stood at 14 nM.
